Data reported in PMC9833666, “Designing and identifying β-hairpin peptide macrocycles with antibiotic potential” (Science Advances, 2023).
Like-named read-outs stand apart in the source and are kept apart here. Bridge positions count the residues as written; N and C are the ends. Peptide text beside a SMILES is read from it.

Test system: Escherichia coli W3110
Assay type: cell-based
Conditions: for Ec W3110 MIC MH: E. coli W3110, MH medium; for Ec W3110 MIC RPMI: E. coli W3110, RPMI medium

Row | W3110 MIC (W3110) [µg/mL] | Ec W3110 MIC MH [µg/mL] | Ec W3110 MIC RPMI [µg/mL] | W3110 MIC MH (E. coli W3110, standard Mueller-Hinton broth, 37°C, 18-24 h, median of n=3) [µg/mL] | W3110 MIC RPMI (W3110) [µg/mL] | W3110 MIC MH (W3110) [µg/mL] | Compound
1 |  | 256 | 128 |  | 128 |  | CC[C@H](C)[C@@H]1NC(=O)[C@H](CCCNC(=N)N)NC(=O)[C@@H](N)CSSC[C@@H](C(=O)O)NC(=O)[C@H](CCC(N)=O)NC(=O)[C@H](C(C)C)NC(=O)[C@H](CCC(=O)O)NC(=O)[C@H](CC(C)C)NC(=O)[C@H](CCCNC(=N)N)NC(=O)[C@H](CC(C)C)NC(=O)[C@H](CCCNC(=N)N)NC(=O)[C@H](CCCNC(=N)N)NC(=O)CNC(=O)[C@H](CCCNC(=N)N)NC(=O)[C@H](CC(N)=O)NC(=O)[C@H](CC(N)=O)NC(=O)[C@H](C(C)C)NC(=O)[C@H](CC(N)=O)NC(=O)[C@H](C(C)C)NC(=O)[C@H](CCCCN)NC1=O [SySA-4] (H-CRIKVNVNNRGRRLRLEVQC-OH; disulfide 1-20; N-terminus and C-terminus assumed)
2 |  | 256 | 32 |  | 32 | 256 | CC[C@H](C)[C@@H]1NC(=O)[C@H](CC(N)=O)NC(=O)[C@H]([C@@H](C)CC)NC(=O)[C@H](CCCNC(=N)N)NC(=O)[C@H](C(C)C)NC(=O)[C@H](CCCNC(=N)N)NC(=O)[C@@H](N)CSSC[C@@H](C(=O)O)NC(=O)[C@H](CCC(N)=O)NC(=O)[C@H](CC(C)C)NC(=O)[C@H](CCC(N)=O)NC(=O)[C@H](CC(C)C)NC(=O)[C@H](CCCCN)NC(=O)[C@H](C(C)C)NC(=O)[C@H](CCCNC(=N)N)NC(=O)[C@H](CCCNC(=N)N)NC(=O)[C@H](CCCNC(=N)N)NC(=O)CNC(=O)[C@H](CC(N)=O)NC(=O)[C@H](CC(N)=O)NC1=O [SySA-7] (H-CRVRININNGRRRVKLQLQC-OH; disulfide 1-20; N-terminus and C-terminus assumed)
3 |  | 256 | 256 |  | 256 | 256 | CC[C@H](C)[C@@H]1NC(=O)[C@H](CCCCN)NC(=O)[C@H]([C@@H](C)CC)NC(=O)[C@H](CCCNC(=N)N)NC(=O)[C@@H](N)CSSC[C@@H](C(=O)O)NC(=O)[C@H](CCC(N)=O)NC(=O)[C@H](C(C)C)NC(=O)[C@H](CCC(N)=O)NC(=O)[C@H](CC(C)C)NC(=O)[C@H](CCCCN)NC(=O)[C@H](CC(C)C)NC(=O)[C@H](CCCNC(=N)N)NC(=O)[C@H](CCCNC(=N)N)NC(=O)[C@H](CO)NC(=O)CNC(=O)[C@H](CC(=O)O)NC(=O)[C@H](CC(N)=O)NC(=O)[C@H](C(C)C)NC(=O)[C@H](CC(N)=O)NC1=O [SySA-8] (H-CRIKINVNDGSRRLKLQVQC-OH; disulfide 1-20; N-terminus and C-terminus assumed)

The remaining lines, values behind:

Row | Compound | W3110 MIC (W3110) [µg/mL] | Ec W3110 MIC MH [µg/mL] | Ec W3110 MIC RPMI [µg/mL] | W3110 MIC MH (E. coli W3110, standard Mueller-Hinton broth, 37°C, 18-24 h, median of n=3) [µg/mL] | W3110 MIC RPMI (W3110) [µg/mL] | W3110 MIC MH (W3110) [µg/mL]
4 | CC(C)C[C@@H]1NC(=O)[C@H](CCC(=O)O)NC(=O)[C@H](CC(C)C)NC(=O)[C@H](CCCCN)NC(=O)[C@H](CC(C)C)NC(=O)[C@H](CCCNC(=N)N)NC(=O)[C@H](CCCNC(=N)N)NC(=O)CNC(=O)[C@H](CCCNC(=N)N)NC(=O)[C@H](CC(=O)O)NC(=O)[C@H](CC(=O)O)NC(=O)[C@H](C(C)C)NC(=O)[C@H](CC(N)=O)NC(=O)[C@H](C(C)C)NC(=O)[C@H](CCCCN)NC(=O)[C@H](C(C)C)NC(=O)[C@H](CCCNC(=N)N)NC(=O)[C@@H](N)CSSC[C@@H](C(=O)O)NC(=O)[C@H](CCC(N)=O)NC1=O [SyRC-15] (H-CRVKVNVDDRGRRLKLELQC-OH; disulfide 1-20) | >256 |  |  |  |  | 
5 | CC[C@H](C)[C@@H]1NC(=O)[C@H](CCCNC(=N)N)NC(=O)[C@@H](N)CSSC[C@@H](C(=O)O)NC(=O)[C@H](CCC(N)=O)NC(=O)[C@H](C(C)C)NC(=O)[C@H](CCC(N)=O)NC(=O)[C@H](CC(C)C)NC(=O)[C@H](CCCNC(=N)N)NC(=O)[C@H](C(C)C)NC(=O)[C@H](CCCNC(=N)N)NC(=O)[C@H](CCCNC(=N)N)NC(=O)[C@H](CCCNC(=N)N)NC(=O)[C@H](CCCNC(=N)N)NC(=O)[C@H](CC(N)=O)NC(=O)[C@H](CC(N)=O)NC(=O)[C@H](C(C)C)NC(=O)[C@H](CC(=O)O)NC(=O)[C@H](C(C)C)NC(=O)[C@H](CCCCN)NC1=O [SySA-1] (H-CRIKVDVNNRRRRVRLQVQC-OH; disulfide 1-20; N-terminus and C-terminus assumed) |  | 128 | 64 | 128 | 64 | 
